Reference: patent US4689326A, “Process for controlling hyperlipidemia” (Research Corporation, priority 1985, dated 1987)

Columns and labels:
serum cholesterol = experiment: Testing of Normal Rats: serum cholesterol, Example 8; format: in vivo, Sprague Dawley male rats; details: oral 20 mg/kg/day
Description: In Example 8 a set of six Sprague Dawley male rats, each weighing approximately 350 grams, were orally treated with a concentration of 20 mg per kilogram of rat weight per day, again suspended in a 1% aqueous solution of CMC. The dosage was applied orally by an intubation needle. On days 9 and 16 serum cholesterol and serum triglycerides blood levels of the rats were measured utilizing th procedure of Example 7.
A control group of six similar Sprague Dawley male rats were untreated but tested on Days 9 and 16 in accordance with the tests administered to the treated rats. Table 6 reports the percent control based on the decrease in serum cholesterol and serum triglycerides of the treated rats compared to the levels measured in the untreated control group.

HMG CoA Reductase = target: T1, HMG CoA Reductase (Mus musculus, UniProt Q01237); experiment: In vitro enzyme activity, liver homogenate: HMG CoA reductase; format: biochemical, CF1 male mouse; details: ± SD, N = 6, read-out: Percent Control, in vitro enzyme activity
T1 construct: 10% homogenates of CF1 male mouse liver; from tissue; host or cells: CF1 male mouse liver, 10% homogenate
T1 sequence (Q01237 1-887): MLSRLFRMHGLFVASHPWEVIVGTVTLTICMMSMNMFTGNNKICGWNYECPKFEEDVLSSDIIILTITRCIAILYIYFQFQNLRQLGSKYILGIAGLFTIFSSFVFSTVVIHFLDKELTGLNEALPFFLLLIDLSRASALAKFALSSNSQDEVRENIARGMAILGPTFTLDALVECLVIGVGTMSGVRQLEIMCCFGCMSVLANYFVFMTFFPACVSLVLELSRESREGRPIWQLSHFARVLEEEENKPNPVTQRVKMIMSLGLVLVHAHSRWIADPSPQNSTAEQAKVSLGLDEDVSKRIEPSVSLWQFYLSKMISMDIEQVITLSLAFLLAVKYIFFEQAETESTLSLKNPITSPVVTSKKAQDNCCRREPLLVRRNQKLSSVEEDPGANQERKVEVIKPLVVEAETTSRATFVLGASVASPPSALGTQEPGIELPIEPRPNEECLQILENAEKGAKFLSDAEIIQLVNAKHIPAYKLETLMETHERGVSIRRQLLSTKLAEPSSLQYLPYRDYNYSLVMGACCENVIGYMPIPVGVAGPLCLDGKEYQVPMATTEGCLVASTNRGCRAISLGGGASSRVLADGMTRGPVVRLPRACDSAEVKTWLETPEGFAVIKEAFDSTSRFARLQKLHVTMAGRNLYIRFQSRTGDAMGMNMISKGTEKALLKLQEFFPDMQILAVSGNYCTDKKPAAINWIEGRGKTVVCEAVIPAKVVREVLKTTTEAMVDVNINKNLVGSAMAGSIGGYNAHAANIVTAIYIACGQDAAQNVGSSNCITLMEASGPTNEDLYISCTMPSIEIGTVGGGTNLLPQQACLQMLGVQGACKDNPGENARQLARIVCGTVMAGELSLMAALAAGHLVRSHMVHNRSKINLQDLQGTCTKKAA
Description: (§1) In vitro enzymatic studies were undertaken using 10% homogenates of CF1 male mouse liver with […] of compound 3,4,5,6-dibenzohomopiperidine. In addition, in vivo enzymatic studies were performed, again using 10% liver homogenates (prepared in 0.25 M sucrose plus 0.001 M (ethylenedinitrilo)-tetraacetic acid, ph 7.25 from CF1 male mice obtained after administering 3,4,5,6-dibenzohomopiperidine for 16 days at a concentration ranging from 10 to 60 mg/kg/day, intraperitoneally.
(§2) The following enzyme activities were determined by following standard literature procedures: acetyl coenzyme synthetase; adenosine triphosphate dependent citrate lyase; mitochondrial citrate exchange; cholesterol/7 hydroxylase; 3-hydroxy-3-methyl-glutaryl coenzyme A reductase; acetyl coenzyme A carboxylase activity; fatty acid synthetase activity; sn-glycerol-3-phosphate acyl transferase activity; phosphatidate phosphohydrolase activity; cholesterol acyl transferase; and heparin activated hepatic lypoprotein lipase. Protein was determined for all enzyme assays by the Lowry et al. technique (J. Biol. Chem, 193, 265 (1951)).

Acetyl CoA Synthetase = experiment: In vivo enzyme activity, liver of treated mice: acetyl CoA synthetase; parameters: species or system CF1 male mice; details: 16 days, ± SD
Description: as §1, §2

Acetyl CoA Carboxylase = experiment: In vivo enzyme activity, liver of treated mice: acetyl CoA carboxylase; parameters: species or system CF1 male mice; details: 16 days, ± SD
Description: as §1, §2

[1] = tested on: ATP Dependent Citrate Lyase; experiment: In vivo enzyme activity, liver of treated mice: ATP dependent citrate lyase; parameters: species or system CF1 male mice; details: 16 days, ± SD
Description: as §1, §2

[2] = tested on: liver, small intestine and fecal materials; experiment: Lipid Extraction Studies in Mice, Example 10; format: in vivo, CF1 male mice; details: ± SD
Description: The CF1 male mice that had been administered compound 3,4,5,6-dibenzohomopiperidine at four dosage levels as well as the control mice, were sacrificed and the liver, small intestine and fecal materials (24 hour collection) were removed, extracted and analyzed for cholesterol level, triglycerides level, neutral lipid content and phospholipid content. Table 8 reports the decrease in measured levels of these concentrations as a percentage of the level in the control. The control, it is noted, is always 100%.

In the case of c1ccc2c(c1)CNCc1ccccc1-2 [Compound 3, 3,4,5,6-dibenzohomopiperidine], the “% Control Serum Cholesterol Day 9” value (serum cholesterol; day 9, ± SD) is reported as 75 ± 5%, the “% Control Serum Cholesterol Day 16” value (serum cholesterol; day 16, ± SD) is reported as 64 ± 3% and the remaining activity at 50 µM (HMG CoA Reductase; 50 μM) is reported as 95 ± 5%. The remaining activity at 100 µM (HMG CoA Reductase; 100 μM) was 151 ± 9%, the remaining activity at 200 µM (HMG CoA Reductase; 200 μM) was 255 ± 8% and the “Percent Control, in vivo enzyme activity” value (Acetyl CoA Synthetase; 10 mg/kg/day ip) was 64 ± 6%. The “Percent Control, in vivo enzyme activity” value (Acetyl CoA Synthetase; 20 mg/kg/day ip) was 95 ± 6%, the “Percent Control, in vivo enzyme activity” value (Acetyl CoA Synthetase; 40 mg/kg/day ip) was 103 ± 8% and the “Percent Control, in vivo enzyme activity” value (Acetyl CoA Synthetase; 60 mg/kg/day ip) was 81 ± 6%. The “Percent Control, in vivo enzyme activity” value (Acetyl CoA Carboxylase; 10 mg/kg/day ip) was 54 ± 6%, the “Percent Control, in vivo enzyme activity” value (Acetyl CoA Carboxylase; 20 mg/kg/day ip) was 57 ± 7% and the “Percent Control, in vivo enzyme activity” value (Acetyl CoA Carboxylase; 40 mg/kg/day ip) was 47 ± 5%. For the same molecule, the “Percent Control, in vivo enzyme activity” value (Acetyl CoA Carboxylase; 60 mg/kg/day ip) was 60 ± 4%, the “Percent Control, in vivo enzyme activity” value ([1]; 10 mg/kg/day ip) was 73 ± 6% and the “Percent Control, in vivo enzyme activity” value ([1]; 20 mg/kg/day ip) was 63 ± 4%. For the same molecule, the “Percent Control, in vivo enzyme activity” value ([1]; 40 mg/kg/day ip) was 62 ± 3%, the “Percent Control, in vivo enzyme activity” value ([1]; 60 mg/kg/day ip) was 65 ± 5% and the “Cholesterol, concentration as a function of control” value (from here on “Cholesterol, concentration”) ([2]; 20 mg/kg) was 55 ± 5%. For the same molecule, the “Lipid wt, concentration as a function of control” value (shortened to “Lipid wt, concentration”) ([2]; 20 mg/kg) was 62 ± 6%, the “Neutral lipid, concentration as a function of control” value (“Neutral lipid, concentration” for short) ([2]; 20 mg/kg) was 50 ± 5% and the “Phospholipid, concentration as a function of control” value (“Phospholipid, concentration” for short) ([2]; 20 mg/kg) was 100 ± 7%. For the same molecule, the “Protein, concentration as a function of control” value (“Protein, concentration” below) ([2]; 20 mg/kg) was 95 ± 8%, the “Triglyceride, concentration as a function of control” value (from here on “Triglyceride, concentration”) ([2]; 20 mg/kg) was 37 ± 4% and the “Cholesterol, concentration” value ([2]; 40 mg/kg) was 114 ± 8%. The “Lipid wt, concentration” value ([2]; 40 mg/kg) was 112 ± 9%, the “Neutral lipid, concentration” value ([2]; 40 mg/kg) was 95 ± 6% and the “Phospholipid, concentration” value ([2]; 40 mg/kg) was 84 ± 7%. The “Protein, concentration” value ([2]; 40 mg/kg) was 103 ± 7%, the “Triglyceride, concentration” value ([2]; 40 mg/kg) was 70 ± 5% and the “Cholesterol, concentration” value ([2]; 60 mg/kg) was 99 ± 5%. The “Lipid wt, concentration” value ([2]; 60 mg/kg) was 106 ± 8%, the “Neutral lipid, concentration” value ([2]; 60 mg/kg) was 90 ± 6% and the “Phospholipid, concentration” value ([2]; 60 mg/kg) was 91 ± 8%. For the same molecule, the “Protein, concentration” value ([2]; 60 mg/kg) was 104 ± 8%, the “Triglyceride, concentration” value ([2]; 60 mg/kg) was 74 ± 6% and the “Cholesterol, concentration” value ([2]; 10 g/kg (so in the source)) was 83 ± 6%. The “Lipid wt, concentration” value ([2]; 10 g/kg (so in the source)) was 92 ± 7%, the “Neutral lipid, concentration” value ([2]; 10 g/kg (so in the source)) was 75 ± 6% and the “Phospholipid, concentration” value ([2]; 10 g/kg (so in the source)) was 78 ± 6%. For the same molecule, the “Protein, concentration” value ([2]; 10 g/kg (so in the source)) was 98 ± 9% and the “Triglyceride, concentration” value ([2]; 10 g/kg (so in the source)) was 48 ± 4%.
